Columns and labels:
[1] = Plasma total phenolic compounds (Folin-Ciocalteu) after treatment; assay type: in vivo, Sprague Dawley rats; details: 90 min posttreatment, 50 µg melatonin/kg
Experimental: (§1) Phytochemicals and metabolites were isolated using SPE.
Samples (10 μL) were added to 150 μL of Folin-Ciocalteu reagent (diluted 1:15, v/v in Milli-Q water). After exactly 3 min, 20% Na2CO3 (50 μL) was added to each well. After 120 min at room temperature, the absorbance of the blue complex was measured at 760 nm using a microplate reader. The concentration of total phenolic compounds was expressed as mg GAE/mL.

[2] = Plasmatic antioxidant capacity by FRAP after treatment; assay type: in vivo, Sprague Dawley rats; details: 90 min after oral 50 µg melatonin/kg
Experimental: as §1
The plasma samples were also used to assess the reducing antioxidant potential using the FRAP assay, as previously described. Briefly, 300 μL of a working FRAP reagent [acetate buffer 0.3 M pH 3.6, 10 mM TPTZ in 40 mM HCl and 20 mM FeCl3·6H2O (10:1:1) (v/v/v)] were tempered to 37 °C, and then 10 μL of plasma samples were added. The absorbance was taken at 593 nm against reagent blank after 10 min. FRAP values were calculated and reported as µM Trolox equivalents (µM TE).

[3] = Pharmacokinetic study of plasma melatonin after single oral dose of lentil sprouts extract
Text: (§2) The area under the curve (AUC) is the integral of the plasma concentration of an altered drug against an interval of definite time. Pharmacokinetic parameters including plasma elimination rate constant (Ke), elimination half-life (t1/2), time to reach measured maximum plasma concentration (Tmax), measured maximum plasma concentration (Cmax), area under the plasma concentration-time curve from the time zero to the time of last quantifiable concentration (AUC0–t), area under the plasma concentration-time curve from time zero to infinity (AUC0–∞), area under the plasma (first) moment concentration-time curve from time zero to infinity (AUMC0–∞), mean residence time (MRT), volume of distribution (VD/F), and clearance (Cl/F) were determined by noncompartmental methods.

[4] = Plasmatic serotonin after treatment (ELISA); assay type: in vivo, Sprague Dawley rats; details: 90 min after oral 50 µg melatonin/kg
[5] = Bioavailability study: plasmatic melatonin 90 min after treatment (ELISA); details: 90 min after oral 50 µg synthetic melatonin/kg
Experimental: Each of the four groups (10 rats) was administered the treatment and sacrificed on a different day. […] The administration was performed through a gavage using a suitable intubation cannula. After that, the rats were individually caged, and a cling film was placed below the cage to obtain the urine samples. After 90 min of extract administration, all rat groups were anesthetized by CO2. Urine was collected from the cling film with a pipette and transferred to a vial. […] The blood was collected by cardiac puncture, transferred to vials containing 5% heparin, and centrifuged at 4 °C for 15 min at 2100 g. […] Phytochemicals and metabolites were isolated using SPE. First, plasma and urine samples were centrifuged at 15000 g for 4 min at 4 °C. Then, samples were filtered using C18 SPE cartridges (Waters, Cerdanyola del Vallès, Spain). Finally, the eluted obtained fractions were evaporated to dryness (Speed Vac SC 200, Savant Instruments, Farmingdale, NY, USA) and reconstituted before being assayed.

in vivo = details: Sprague Dawley, rat, plasma, po, 50 ug/kg
Text: as §2

[6] = cited from earlier work
[7] = Plasmatic antioxidant capacity by ORAC after treatment; assay type: in vivo, Sprague Dawley rats; details: 90 min after oral 50 µg synthetic melatonin/kg
Experimental: as §1
The above plasma samples were used to determine the radical scavenging activity via the ORAC method using fluorescein as a fluorescence probe. The assay was performed at 37 °C in 75 mM phosphate buffer (pH 7.4). The reaction mixture (200 μL) contained fluorescein (70 nM), 2,2-azobis (2-methyl-propionamidine)-dihydrochloride (12 mM), and samples (Trolox or samples). Fluorescence was read at 485/520 nm, excitation/emission, respectively. Black 96-well untreated microplates (PS Balck, Porvair, Leatherhead, UK) were used. The fluorescence signal was measured every minute for 80 min after automatic shaking. All reaction mixtures were prepared in triplicate, running them at least three times independently. Fluorescence was normalized to the oxidation control (phosphate buffer) and stability control (no antioxidant). The ORAC values were expressed as mM Trolox equivalents (mM TE) according to the protocol previously described.

[8] = Sprague Dawley, rat, plasma, po, 50 ug/kg
[9] = oral lentil sprouts, 50 µg melatonin/kg

For `COc1ccc2[nH]cc(CCNC(C)=O)c2c1` [melatonin, N-acetyl-5-methoxytryptamine], the “change of TPC concentration in plasma” value [1] was “nonsignificant”, the “increase of plasmatic antioxidant capacity (FRAP)” value [2] was 4% and the half-life ([3]; Sprague Dawley, rat, in vivo, po, 50 ug/kg) was 1.82 ± 0.217 h. The CL/F [3, 8] was 330 L/h/kg, the half-life [3, 8] was roughly 1.67 h and the k el [3, 8] was 0.000108 s⁻¹. For the same compound, the MRT inf ([3]; Sprague Dawley, rat, plasma, po, 50 ug/kg, MRT 0-∞, oral lentil sprouts, 50 µg melatonin/kg) was roughly 3.33 h, the “time of maximum plasma melatonin concentration postadministration” value ([3]; oral lentil sprouts extract, 50 µg melatonin/kg) was 1.5 h and the “AUC 0-t /dose” value [3, 9] was 131.2 ± 19.3 (pg/mL min)/(μg/kg). The “AUC 0-∞” value [3, 9] was 9381 ± 2008 pg·min/mL, the “AUMC 0-∞” value [3, 9] was 1897356 ± 589030 pg/mL min^2 and the Cl/F [3, 9] was 0.33 ± 0.07 (μg/kg)/(pg/mL)/h. The “MRT 0-∞” value [3, 9] was 3.323 ± 0.33 h, the VD/F [3, 9] was 0.85 ± 0.08 (μg/kg)/(pg/mL) and the “volume of distribution (VD/F)” value [3, 9] was 0.85 L/g. For the same compound, the “AUC 0-t” value ([3]; oral lentil sprouts, 50 µg melatonin/kg, 0-240 min) was 6560 ± 963 pg·min/mL, the “enhancement of plasmatic serotonin concentration in contrast to the Fasting group” value [4] was 2.7 fold and the “plasmatic melatonin concentration lower than that of the Lentil Sprouts group” value [5] was 22%. For the same compound, the Cmax (in vivo) was 0.0454 ± 0.0035 ng/mL, the Tmax (in vivo) was 1.5 h and the “time of absorption in the gastrointestinal tract post-oral administration” value [6] was 45 min. For the same compound, the “increment of plasmatic antioxidant capacity (ORAC) vs the fasting group” value [7] was 32%.

Reference: publication PMC7143261 (Foods, 2020)
